The values that follow come from BindingDB's records for doi:10.1021/jm00016a009 (Purdue University, 1995).

The test can be described thus: Effective concentration as Adenylate cyclase activity was measured in rat homogenate.

In turn, `CCc1ccc2c(c1)[C@@H]1c3cc(O)c(O)cc3CC[C@H]1NC2` [(6aR,12bS)-2-Ethyl-5,6,6a,7,8,12b-hexahydro-benzo[a]phenanthridine-10,11-diol] yielded a concentration for a half-maximal effect (EC50) of 0.61 µM.

With `Oc1ccc2c(c1)[C@@H]1c3cc(O)c(O)cc3CC[C@H]1NC2` [(6aR,12bS)-5,6,6a,7,8,12b-Hexahydro-benzo[a]phenanthridine-2,10,11-triol], a half-maximal response (EC50) required 0.148 µM.

Turning to `Cc1cccc2c1CN[C@@H]1CCc3cc(O)c(O)cc3[C@@H]21` [(6aR,12bS)-4-Methyl-5,6,6a,7,8,12b-hexahydro-benzo[a]phenanthridine-10,11-diol], the half-maximal effective concentration (EC50) is 0.151 µM.

Take `Oc1ccc2c(c1)CN[C@@H]1CCc3cc(O)c(O)cc3[C@@H]21` [(6aR,12bS)-5,6,6a,7,8,12b-Hexahydro-benzo[a]phenanthridine-3,10,11-triol]: the EC50 came out at 0.13 µM.

Turning to `Oc1cc2c(cc1O)[C@H]1c3cc(-c4ccccc4)ccc3CN[C@@H]1CC2` [(6aR,12bS)-2-Phenyl-5,6,6a,7,8,12b-hexahydro-benzo[a]phenanthridine-10,11-diol], the EC50 was determined as 0.01 µM.

In the case of `Cc1ccc2c(c1)CN[C@@H]1CCc3cc(O)c(O)cc3[C@@H]21` [(6aR,12bS)-3-Methyl-5,6,6a,7,8,12b-hexahydro-benzo[a]phenanthridine-10,11-diol], the EC50 was 0.134 µM.

Regarding `CCCN1Cc2cc(C)ccc2[C@@H]2c3cc(O)c(O)cc3CC[C@H]21` [(6aR,12bS)-3-Methyl-6-propyl-5,6,6a,7,8,12b-hexahydro-benzo[a]phenanthridine-10,11-diol], the EC50 amounted to 0.01 µM.

Usually EC50 stands for the concentration giving half of the maximal effect. A lower EC50 goes with greater potency.
